Reference: patent US20260262641A1 (priority 2023, published 2026)

Tests used:
[1] = system: ground pearl (Margarodes spp); test: Field trial in kikuyu turf, control of ground pearl, Sydney (Example 2); format: in vivo
Protocol: A field trial was conducted in kikuyu turf, to evaluate fenpyroximate for control of ground pearl (Margarodes spp). The trial was located at Sydney University, New South Wales (−33.888, 151.188), in an area with a known infestation of ground pearl.
All treatments were applied using a hand boom fitted with XR11004 nozzles, in a spray volume of 430 L/ha.
The ground pearl density by species was assessed by sampling 20 cores per plot and recording the number of eggs and adults, and Normalized Difference Vegetation Index (NDVI) was assessed 56 days after the third application using a Greenseeker.
(§1) All data was statistically analyzed using analysis of variance and Fisher's protected least significant different test (Fishers LSD). The level of significance for all tests was P<0.05.

[2] = system: insecticide-resistant population of redlegged earth mite (H. destructor; RLEM); test: whole plant or invertebrate; conditions: Halotydeus destructor, 24 h, read-out: % RLEM mortality, Resistant
Protocol: (§2) The insecticide-susceptible H. destructor population tested in this bioassay was collected from burr medic (Medicago polymorpha) and barley grass (Hordeum leporinum) in Moulamein, NSW (−35.102, 144.026), a site with no known history of insecticide application. […] Mites were collected via suction using a Stihl SH55 blower vacuum, placed in plastic containers with paper towel and vegetation, and transported back to the laboratory, where they were stored at 4° C. until testing.
(§3) Serial dilutions were prepared for each insecticide (Table 9), with the addition of a non-ionic surfactant (Tween 20) at 0.01% to aid the spread of the insecticide and ensure even coating. […] Nine concentrations of bifenthrin were tested, ranging from 1×10^−5 to 10 times the field rate of 40 mL diluted in 100 L of water (100 mg a.i./L). Seven concentrations of omethoate were tested, ranging from 1×10^−5 to 10 times the field rate of 100 mL in 100 L of water (290 mg a.i./L).
(§4) Six vials were coated per concentration and were left to dry overnight. Control vials were treated in the same way, except water (with the addition of 0.01% Tween) was used. The next day, eight individual H. destructor were then placed into each vial along with 2-3 leaves of common vetch (Vicia sativa), which provided food and humidity. Vials were then sealed with a screw lid and placed in a controlled temperature cabinet at 18° C. After 24-hours exposure, mites were scored as alive (moving freely), incapacitated (inhibited movement), or dead (no movement over a 5 second period).
(§5) Dose-response curves were generated by plotting percentage mortality against log concentration. A series of logistic models were used to quantify the sensitivity of H. destructor to each chemical and to test whether any differences in sensitivity were present between the two populations. Logistic regression is well suited for the analysis of binary response data (e.g., dead/alive). Each model included chemical concentration and H. destructor population as fixed-effect predictors, which allowed testing for whether populations had average differences in mortality (i.e., model intercept) via F tests. It was then determined if populations had differences in mortality that were dependent on chemical concentration (i.e., differences in regression slopes) by comparing the inclusion of a population×concentration predictor (i.e., allowing slopes to vary between populations). […] The resulting LC50 values were used to quantify the level of insecticide resistance (resistance ratios) relative to the known insecticide-susceptible population. All analyses were conducted using R version 4.3.1 (R Development Core Team 2023).

[3] = system: insecticide-susceptible population of redlegged earth mite (H. destructor; RLEM); test: whole plant or invertebrate; conditions: Halotydeus destructor, 24 h, read-out: % RLEM mortality, Susceptible
Protocol: as §2, §3, §4, §5

[4] = system: couch mite (Aceria cynodoniensis); test: Field trial in Santa Ana couch turfgrass, control of couch mite (Example 3); format: in vivo
Protocol: A field trial was conducted in Santa Ana couch turfgrass, to evaluate fenpyroximate for control of couch mite (Aceria cynodoniensis). The trial was located at Terrey Hills Golf and Country Club, New South Wales (−33.668, 151.217). […] All treatments were applied using a hand boom fitted with XR11004 nozzles and in a spray volume of 430 L/ha.
The incidence of couch mite damage, to the terminal growth point (known as witches' broom) was assessed 42 days after the second application. Turf biomass and vigor were assessed at the same timing on a 0 to 10 rating scale, along with NDVI using a Greenseeker.
as §1

[5] = versus untreated, P<0.05, with PE 6200

Cc1nn(C)c(Oc2ccccc2)c1C=NOCc1ccc(C(=O)OC(C)(C)C)cc1 [Fenpyroximate]
NDVI, Pre-spray ([1]; Pre-spray (baseline), kikuyu turf, Greenseeker): 8.0
Ground pearls/plot, Adults, Pre-spray ([1]; sc): 4.0 a ground pearls/plot
Ground pearls/plot, Eggs, Pre-spray ([1]; sc): 10.3 a ground pearls/plot
Ground pearls/plot, Adults, 56 DAA3 ([1]; sc, 200 g/ha, 1344 h): 12.8 a ground pearls/plot
Ground pearls/plot, Eggs, 56 DAA3 ([1]; sc, 200 g/ha, 1344 h): 5.3 a ground pearls/plot
NDVI, 56 DAA3 ([1]; sc, 1344 h): 7.6
turf color and quality / NDVI (in words) ([1]; versus untreated, P<0.05): significantly improved
density of ground pearl adults (in words) [1, 5]: significantly reduced
density of ground pearl eggs (in words) [1, 5]: significantly reduced
mortality at 0.1 µg/mL [2]: 4.6%
mortality at 10 µg/mL [2]: 11.2%
mortality at 100 µg/mL [2]: 45.7%
mortality at 300 µg/mL [2]: 86.3%
mortality at 1000 µg/mL [2]: 100%
mortality at 10000 µg/mL [2]: 100%
mortality at 0.1 µg/mL [3]: 6.9%
mortality at 1 µg/mL [3]: 12.6%
mortality at 10 µg/mL [3]: 11.3%
mortality at 100 µg/mL [3]: 47.3%
mortality at 300 µg/mL [3]: 92.2%
mortality at 1000 µg/mL [3]: 98.5%
mortality at 10000 µg/mL [3]: 100%
Biomass and vigor (0-10), 42 DAA2 ([4]; 42 DAA2, 0 to 10 rating scale, product rate mL/ha: Prophesy 500, Thumper 2000 (+ BS 1000 0.25% v/v), Fenpyroximate 50 SC 4000): 4.8
NDVI, 42 DAA2 ([4]; 42 DAA2, Greenseeker, product rate mL/ha: Prophesy 500, Thumper 2000 (+ BS 1000 0.25% v/v), Fenpyroximate 50 SC 4000): 0.63
% Incidence mite damage, 42 DAA2 ([4]; 42 days after second application, product rate mL/ha: Prophesy 500, Thumper 2000 (+ BS 1000 0.25% v/v), Fenpyroximate 50 SC 4000 (200 g ai/ha)): 47.0%
Biomass and vigor (0-10), Pre-spray ([4]; Pre-spray (baseline), 0 to 10 rating scale): 4.1 a
NDVI, Pre-spray ([4]; Pre-spray (baseline), Greenseeker): 0.55 a
% Incidence mite damage, Pre-spray ([4]; Pre-spray (baseline), witches' broom): 95.8 a %
incidence of couch mite damage (in words) ([4]; versus untreated, P<0.05): significantly reduced
turf biomass and vigor and NDVI (in words) ([4]; versus untreated, P<0.05): significantly improved
